Measurements taken from patent US8865967B2 (priority 2010, dated 2014).

How the values were obtained:
Format in all cases: cell-based
[1] = system: Fusarium graminearum (FGR; isolate 73B ISU); details: for IC50 (ppm) High Salt Fgr: high salt: 1/2x liquid media plus 1 mM calcium chloride, 50 mM potassium chloride; for IC50 (ppm) Low Salt Fgr: low salt: 1/8x potato dextrose broth plus 0.25 mM calcium chloride, 12.5 mM potassium chloride
[2] = system: Fusarium verticillioides (FVE)
[3] = system: Colletotrichum graminicola (CGR; isolate Carroll-IA-99); details: for Antifungal activity (IC50 in ppm) against C. graminicola under high salt conditions: Table 2; for IC50 (ppm) High Salt Cgr: high salt: 1/2x liquid media plus 1 mM calcium chloride, 50 mM potassium chloride, Table 1; for IC50 (ppm) Low Salt Cgr: low salt: 1/8x Czapek-Dox broth plus 0.25 mM calcium chloride, 12.5 mM potassium chloride
Diplodia maydis (DMA) = details: for IC50 (ppm) High Salt Dma: high salt: 1/2x liquid media plus 1 mM calcium chloride, 50 mM potassium chloride; for IC50 (ppm) Low Salt Dma: low salt: 1/8x potato dextrose broth plus 0.25 mM calcium chloride, 12.5 mM potassium chloride

Substance	IC50 (ppm) High Salt Fgr [1]	IC50 (ppm) High Salt Fve [2]	Antifungal activity (IC50 in ppm) against C. graminicola under high salt conditions [3]	IC50 (ppm) High Salt Cgr [3]	IC50 (ppm) High Salt Dma (Diplodia maydis (DMA))	IC50 (ppm) Low Salt Fgr [1]	IC50 (ppm) Low Salt Fve [2]	IC50 (ppm) Low Salt Cgr [3]	IC50 (ppm) Low Salt Dma (Diplodia maydis (DMA))
Pp-PDF1 (4B11): Pp-PDF1 variant identified by DNA shuffling (RVCTKPSKFFKGMCVSDNNCTHACRKEGLPTGFCQSKGFFNSVCVCKKPC; Synthetic sequence obtained from DNA shuffling of a plant sequence.)	>200 ppm	>200 ppm	1 ppm	0.8 ppm	12.5 ppm				
Pp-PDF1-2CA-1H4: Pp-PDF1 variant from second shuffling round (RVCRKPSKFFKGLCLSDRDCTNACRKEGLATGECQSKGFFNSVCVCEKPC; Synthetic sequence obtained from DNA shuffling of a plant sequence.)				1 ppm					
PP-PDF1-1F-12H3: Pp-PDF1 variant from first shuffling round (RVCTKPSKFFKGLCVSDDDCAHACRKEGLATGKCQKKGFFNRVCVCKKPC; Synthetic sequence obtained from DNA shuffling of a plant sequence.)	3 ppm	>200 ppm		10 ppm	200 ppm				
PP-PDF1-2CF-10F3: Pp-PDF1 variant from second shuffling round (RVCTKPSKFFRGLCVSDRNCTNACRKEGLPTGECKSKGFFNSVCVCKKPC; Synthetic sequence obtained from DNA shuffling of a plant sequence.)	100 ppm	200 ppm		0.6 ppm	25 ppm	15 ppm	30 ppm	1.5 ppm	15 ppm
PP-PDF1-2CF-2D8: Pp-PDF1 variant from second shuffling round (RVCTKPSKFYKGLCVSDRDCTNACRKEGLPTGFCQSKGFFNSVCVCKKPC; Synthetic sequence obtained from DNA shuffling of a plant sequence.)	100 ppm	200 ppm		0.6 ppm	50 ppm	15 ppm	30 ppm	0.3 ppm	15 ppm
Pp-PDF1 2CA 5H4: Pp-PDF1 variant from second shuffling round (RVCKKPSKFFKGLCLSDRDCTNACRKEGLATGECQSKGFFNSVCVCEKPC; Synthetic sequence obtained from DNA shuffling of a plant sequence.)				1 ppm					
Pp-PDF1-4CB-6E9: Pp-PDF1 variant from fourth shuffling round (RVCTKPSKFFKGLCISDRQCTNACRKEGLPTGECQPKGFFNSVCVCRKPC; Synthetic sequence obtained from DNA shuffling of a plant sequence.)	150 ppm	>200 ppm		0.25 ppm	100 ppm			0.4 ppm	
Pp-PDF1: Picramnia pentandra plant defensin, parent polypeptide used in the DNA shuffling (KVCTKPSKFFKGLCGADRDCTVACKKEGLATGFCQKKGFFNFVCVCRKPC; listed as Picramnia pentandra) [reference compound]	5 ppm	50 ppm	15 ppm	15 ppm	50 ppm	2 ppm	2 ppm	3 ppm	7.5 ppm
Pp-PDF1-3CA-1B2: Pp-PDF1 variant from third shuffling round (RVCTKPSKFYRGLCVSDRDCTHACRKEGLPIGECKSKGFFNSVCVCKKPC; Synthetic sequence obtained from DNA shuffling of a plant sequence.)	^~100 ppm	200 ppm		0.8 ppm	50 ppm	15 ppm	30 ppm	2 ppm	15 ppm
Pp-PDF1-1C-6D3: Pp-PDF1 variant from first shuffling round (RVCEKPSKFFKGLCVRDRDCAVACKKEGLASGFCQSKGFFNSVCVCKKPC; Synthetic sequence obtained from DNA shuffling of a plant sequence.)				12 ppm		4.5 ppm		0.6 ppm	
Pp-PDF1-2CE-4A7: Pp-PDF1 variant from second shuffling round (RVCTKPSKFFKGLCVSDNNCTHACRTEGLPIGFCQSKGFFNSVCVCKKPC; Synthetic sequence obtained from DNA shuffling of a plant sequence.)	5.6 ppm	200 ppm		0.8 ppm	25 ppm				
Pp-PDF1-4CB-6E6: Pp-PDF1 variant from fourth shuffling round (RVCTKPSKFYKGLCISDRDCTNACRKEGLPIGFCKSKGFFNSVCVCRKPC; Synthetic sequence obtained from DNA shuffling of a plant sequence.)	150 ppm	>200 ppm		0.25 ppm	100 ppm			0.25 ppm	
Pp-PDF1 (C2B5): Pp-PDF1 variant identified by DNA shuffling (RVCEKPSKFFKGMCVSDRNCTNACRKEGLPTGFCQSKGFFNSVCVCKKPC; Synthetic sequence obtained from DNA shuffling of a plant sequence.)			0.8 ppm						
Pp-PDF1-2CA-1A6: Pp-PDF1 variant from second shuffling round (RVCKKPSKFFKGLCLSDRDCTNACRKEGLATGECQSKGFFNSVCVCRKPC; Synthetic sequence obtained from DNA shuffling of a plant sequence.)				1 ppm					
Pp-PDF1-4CB-12G9: Pp-PDF1 variant from fourth shuffling round (RVCTKPSKFFRGLCVSDRQCTNACRKEGLPIGECQSKGFFNSVCVCRKPC; Synthetic sequence obtained from DNA shuffling of a plant sequence.)	50 ppm	>200 ppm		0.25 ppm	25 ppm			0.25 ppm	
Pp-PDF1-1F-1C5: Pp-PDF1 variant from first shuffling round (KVCTKPSKFFKGMCVRDRDCTNACRKEGLASGFCQKKGFFNFVCVCRKPC; Synthetic sequence obtained from DNA shuffling of a plant sequence.)	1.5 ppm	>200 ppm		10 ppm	50 ppm				
Pp-PDF1-3CA-1 E6: Pp-PDF1 variant from third shuffling round (RVCTKPSKFYRGLCVSDRDCTNACRKEGLPTGFCQSKGFFNSVCVCKKPC; Synthetic sequence obtained from DNA shuffling of a plant sequence.)	^~100 ppm			0.6 ppm					
PP-PDF1-1F-7H6: Pp-PDF1 variant from first shuffling round (RVCEKPSKFFKGMCVRDRDCTVACKKEGLATGFCQKKGFFNFVCVCKKPC; Synthetic sequence obtained from DNA shuffling of a plant sequence.)	3 ppm	>200 ppm		10 ppm	200 ppm				
Pp-PDF1-3CA-2D3: Pp-PDF1 variant from third shuffling round (RVCTKPSKFFRGLCVSDNDCTNACRKEGLPTGFCQSKGFFNSVCVCKKPC; Synthetic sequence obtained from DNA shuffling of a plant sequence.)	^~100 ppm	200 ppm		0.8 ppm	25 ppm	15 ppm	30 ppm	0.3 ppm	6 ppm
Pp-PDF1-3CA-1A2: Pp-PDF1 variant from third shuffling round (RVCTKPSKFYRGLCVSDRDCTHACRKEGLPTGFCQSKGFFNSVCVCKKPC; Synthetic sequence obtained from DNA shuffling of a plant sequence.)	^~100 ppm	200 ppm		0.6 ppm	50 ppm	15 ppm	30 ppm	3 ppm	15 ppm
Pp-PDF1-1C-7C4: Pp-PDF1 variant from first shuffling round (RVCTKPSKFFKGMCVSDNDCTHACRKEGLATGFCQSKGFFNSVCVCTKPC; Synthetic sequence obtained from DNA shuffling of a plant sequence.)	20 ppm	>200 ppm	5 ppm	3 ppm	25 ppm	4.7 ppm		0.14 ppm	
